In patent US20230339854A1, “Negative Allosteric Modulation of GluN3-Containing N-Methyl-D-Aspartate Receptors” (Emory University, priority 2020, published 2023) one finds remaining activity and IC50 data, which are given here for 28 compounds.

The assay concerns the target T1, human GluN1^FA,TL/GluN3A receptors (Homo sapiens, UniProt Q8TCU5).
T1 construct: Human GluN3A (NP_597702.2) and rat GluN3B (NP_579842.2) were synthesized and subcloned into SP6 plasmids; expressed in transfected cells; host or cells: Xenopus laevis oocytes, cRNA injection (GluN1:GluN3 1:3)
Put plainly: Two-electrode voltage-clamp recordings of GluN1^FA,TL/GluN3A receptors in Xenopus oocytes. It is filed as cell-based. Particulars: for remaining activity at 30 µM: read-out: hGluN1^FA,TL/hGluN3A (100 × Idrug/Icontrol at 30 μM drug). The source says:
cDNA encoding human wild-type (WT) GluN1-1a (GenBank accession numbers NP_015566, hereafter GluN1) and rat GluN1-1a (NP_058706.1) were synthesized and subcloned into pGEMHE plasmid; some experiments used the rat splice variant GluN1-4a (NP_001257531.1). Human GluN3A (NP_597702.2) and rat GluN3B (NP_579842.2) were synthesized and subcloned into SP6 plasmids. For most experiments, human GluN1 was co-expressed with human GluN3A, except for mutagenesis experiments where rat GluN1 was co-expressed with human GluN3A. Rat GluN1-4a was always expressed with rat GluN3B.
Defolliculated Xenopus laevis oocytes (stage V-VI) were obtained from Ecocyte BioScience (Austin, Texas), or prepared from commercially available Xenopus ovaries (Xenopus 1, Dexter, MI) as previously described (Hansen, et al., Mol. Pharmacol., 2013). A Drummond Nanoject II (Broomall, PA) was used to inject oocytes with cRNAs encoding GluN1 and GluN3 at a 1:3 ratio in RNase-free water. The cRNA was diluted as needed to give responses with amplitudes ranging between 200-2000 nA (0.2-10 ng total cRNA). Following cRNA injection, the oocytes were stored at 15-19° C. in Barth's solution that contained (in mM) 88 NaCl, 2.4 NaHCO3, 1 KCl, 0.33 Ca(NO3)2, 0.41 CaCl2), 0.82 MgSO4, and 5 Tris-HCl (pH 7.4 with NaOH), supplemented with 1 μg/ml streptomycin (Invitrogen, Carlsbad, CA) and 100 μg/ml gentamicin (Fisher Scientific, Pittsburgh, PA). Recordings were performed 2-5 days following cRNA microinjection at room temperature (23° C.) using a two-electrode voltage-clamp amplifier (OC725, Warner Instrument, Hamilton, CT). The signal was low-pass filtered at 10-20 Hz (4-pole, −3 dB Bessel) and digitized at the Nyquist rate using PCI-6025E or USB-6212 BNC data acquisition boards (National Instruments, Austin, TX) using EasyOocyte (http://www.easyoocyte.io/). Oocytes were placed in a custom-made chamber and continuously perfused (2.5 ml/min) with oocyte recording solution containing (in mM) 90 NaCl, 1 KCl, 10 HEPES, 0.5-1.0 BaCl2, and 0.01 EDTA (pH 7.4 with NaOH). Solutions were applied by gravity, and solution exchange was controlled through a rotary valve (Hamilton, Reno, NV). Recording electrodes were filled with 0.3-3.0 M KCl, and current responses were recorded at a holding potential of −40 mV.
Response (%)=(100−minimum)/(1+([concentration]/IC50)^nH)+minimum (2) • where nH is the Hill slope, IC50 is the concentration that produces a half-maximal effect, and minimum is the degree of residual inhibition at a saturating concentration of the negative allosteric modulator.
The afore-referenced compounds were screened in the same assay as EU1180-438 to determine their effects on hGluN1^FA,TL/hGluN3A receptors. Selected compounds that inhibited by more than 20% at the concentration at which they were initially evaluated (either 10 or 30 μM) were analyzed further, and a dose-response curve was generated to determine their IC50 values.
For orientation: Two-electrode voltage clamp is typically applied to oocytes expressing channels or transporters.

T1 sequence (Q8TCU5 24-1115, other chains not shown): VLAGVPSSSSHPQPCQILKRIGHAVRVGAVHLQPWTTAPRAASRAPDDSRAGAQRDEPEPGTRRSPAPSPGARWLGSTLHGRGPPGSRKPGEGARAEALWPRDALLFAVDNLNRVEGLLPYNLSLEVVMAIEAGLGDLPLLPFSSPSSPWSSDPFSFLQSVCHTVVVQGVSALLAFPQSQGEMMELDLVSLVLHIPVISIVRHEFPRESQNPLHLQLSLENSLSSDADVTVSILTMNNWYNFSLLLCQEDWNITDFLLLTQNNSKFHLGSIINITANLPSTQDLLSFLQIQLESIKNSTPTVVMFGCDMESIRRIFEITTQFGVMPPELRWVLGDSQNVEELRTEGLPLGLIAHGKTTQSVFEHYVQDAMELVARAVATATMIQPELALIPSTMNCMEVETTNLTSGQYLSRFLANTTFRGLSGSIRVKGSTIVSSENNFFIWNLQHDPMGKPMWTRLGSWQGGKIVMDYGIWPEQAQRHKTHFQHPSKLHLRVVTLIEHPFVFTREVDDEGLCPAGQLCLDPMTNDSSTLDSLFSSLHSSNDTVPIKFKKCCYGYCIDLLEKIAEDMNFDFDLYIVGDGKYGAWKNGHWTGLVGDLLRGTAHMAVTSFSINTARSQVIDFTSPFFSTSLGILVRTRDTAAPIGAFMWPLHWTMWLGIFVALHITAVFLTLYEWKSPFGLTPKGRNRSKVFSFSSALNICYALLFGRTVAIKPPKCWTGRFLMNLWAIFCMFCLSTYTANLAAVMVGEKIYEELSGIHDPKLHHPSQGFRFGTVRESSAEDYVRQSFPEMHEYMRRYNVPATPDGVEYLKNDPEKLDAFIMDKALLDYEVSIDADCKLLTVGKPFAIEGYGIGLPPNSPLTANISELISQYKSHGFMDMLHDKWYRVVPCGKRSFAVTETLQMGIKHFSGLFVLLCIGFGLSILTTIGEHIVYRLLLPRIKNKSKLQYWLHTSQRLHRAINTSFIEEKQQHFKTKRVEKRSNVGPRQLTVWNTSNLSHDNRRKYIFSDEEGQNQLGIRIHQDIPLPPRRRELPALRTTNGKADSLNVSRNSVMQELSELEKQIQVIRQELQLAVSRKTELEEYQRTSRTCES

Consider `COc1ccc(OCC(c2ccc(OC)cc2F)N2Cc3cc(Cl)ccc3C2=O)cc1` (centres unmarked) [EU1180-532, 5-Chloro-2-(1-(2-fluoro-4-methoxyphenyl)-2-(4-methoxyphenoxy)ethyl)isoindolin-1-one], for which the remaining activity at 30 µM was 95%. On the same count and under the same terms, under `COc1ccc(OCC(c2ccc(OC)cc2)N2Cc3cc(F)ccc3C2=O)cc1` (centres unmarked) [EU1180-521, 5-Fluoro-2-(2-(4-methoxyphenoxy)-1-(4-methoxyphenyl)ethyl)isoindolin-1-one] stands 60%. Still for that read-out and setting: under `COc1ccc(C(COc2cccc(C)n2)N2Cc3ccc(Cl)cc3C2=O)cc1` (centres unmarked) [EU1180-595, 6-Chloro-2-(1-(4-methoxyphenyl)-2-((6-methylpyridin-2-yl)oxy)ethyl)isoindolin-1-one] stands 75%.

Take `COc1cc(F)c(C(COc2cccc(C)n2)N2Cc3ccc(Cl)cc3C2=O)c(F)c1` (centres unmarked) [EU1180-611, 6-Chloro-2-(1-(2,6-difluoro-4-methoxyphenyl)-2-((6-methylpyridin-2-yl)oxy)ethyl)isoindolin-1-one]: the remaining activity at 30 µM amounted to 57%. Moreover, the concentration for half-maximal inhibition (IC50) (hGluN1^FA,TL/hGluN3A, read-out: IC50) is 63 µM. As for `COc1ccc(C(COc2cccc(C)n2)N2Cc3cc(Br)ccc3C2=O)c(F)c1` (centres unmarked) [EU1180-606, 5-Bromo-2-(1-(2-fluoro-4-methoxyphenyl)-2-((6-methylpyridin-2-yl)oxy)ethyl)isoindolin-1-on], the remaining activity at 30 µM is 66%. In the case of `COc1ccc(OCC(c2ccc(OC)c(OC)c2)N2Cc3cc(Cl)ccc3C2=O)cc1` (centres unmarked) [EU1180-524, 5-Chloro-2-(1-(3,4-dimethoxyphenyl)-2-(4-methoxyphenoxy)ethyl)isoindolin-1-one], the remaining activity at 30 µM was 102%. The same measure, in the same setting: under `COc1ccc(OCC(c2ccc(OC)cc2)N2Cc3ccc(C(F)(F)F)cc3C2=O)cc1` (centres unmarked) [EU1180-518, 2-(2-(4-Methoxyphenoxy)-1-(4-methoxyphenyl)ethyl)-6-(trifluoromethyl)isoindolin-1-one] stands 86%; under `COc1ccc(OCC(c2ccc(OC)cc2F)N2Cc3ccc(Br)cc3C2=O)cc1` (centres unmarked) [EU1180-535, 6-Bromo-2-(1-(2-fluoro-4-methoxyphenyl)-2-(4-methoxyphenoxy)ethyl)isoindolin-1-one], 83%; under `CC(C)Oc1ccc(C(COc2ccc(C(F)(F)F)cc2)N2Cc3ccc(C(F)(F)F)cc3C2=O)cc1` (centres unmarked) [EU1180-572, 2-(1-(4-isopropoxyphenyl)-2-(4-(trifluoromethyl)phenoxy)ethyl)-6-(trifluoromethyl)isoindolin-1-one], 91%.

On to `Cc1cccc(OCC(c2ccc(OC(C)C)cc2)N2Cc3cc(F)ccc3C2=O)n1` (centres unmarked) [EU1180-513, 5-fluoro-2-(1-(4-isopropoxyphenyl)-2-((6-methylpyridin-2-yl)oxy)ethyl)isoindolin-1-one], for which the remaining activity at 30 µM came out at 87%. Same read-out and setting: under `CCOc1ccc(OCC(c2ccc(OC(C)C)cc2)N2Cc3cc(F)ccc3C2=O)cc1` (centres unmarked) [EU1180-591, 5-fluoro-2-(2-(4-ethoxyphenoxy)-1-(4-isopropoxyphenyl)ethyl)isoindolin-1-one] stands 90%; under `COc1ccc(C(COc2cccc(C)n2)N2Cc3cc(F)ccc3C2=O)c(F)c1` (centres unmarked) [EU1180-601, 5-Fluoro-2-(1-(2-fluoro-4-methoxyphenyl)-2-((6-methylpyridin-2-yl)oxy)ethyl)isoindolin-1-one], 79%. Take `COc1cc(F)c(C(COc2cccc(C)n2)N2Cc3cc(Cl)ccc3C2=O)c(F)c1` (centres unmarked) [EU1180-610, 5-Chloro-2-(1-(2,6-difluoro-4-methoxyphenyl)-2-((6-methylpyridin-2-yl)oxy)ethyl)isoindolin-1-one]: the remaining activity at 30 µM came to 76%. For the compound `CC(C)Oc1ccc(C(COc2ccc(C(F)(F)F)cc2)N2Cc3ccc(Br)cc3C2=O)cc1` (centres unmarked) [EU1180-577, 6-bromo-2-(1-(4-isopropoxyphenyl)-2-(4-(trifluoromethyl)phenoxy)ethyl)isoindolin-1-one], the remaining activity at 30 µM is 108%.

`CC(C)Oc1ccc(C(COc2ccc(OC(F)(F)F)cc2)N2Cc3cc(Cl)ccc3C2=O)cc1` (centres unmarked) [EU1180-541, 5-chloro-2-(1-(4-isopropoxyphenyl)-2-(4-(trifluoromethoxy)phenoxy)ethyl)isoindolin-1-one]: the remaining activity at 30 µM turned out to be 100%. Still for that read-out and setting: under `COc1ccc(OCC(c2ccc(OC)c(OC)c2)N2Cc3ccc(Cl)cc3C2=O)cc1` (centres unmarked) [EU1180-525, 6-Chloro-2-(1-(3,4-dimethoxyphenyl)-2-(4-methoxyphenoxy)ethyl)isoindolin-1-one] stands 94%; under `COc1ccc(C(COc2cccc(C)n2)N2Cc3ccc(F)cc3C2=O)c(F)c1` (centres unmarked) [EU1180-602, 6-Fluoro-2-(1-(2-fluoro-4-methoxyphenyl)-2-((6-methylpyridin-2-yl)oxy)ethyl)isoindolin-1-one], 73%; under `CC(C)Oc1ccc(C(COc2ccc(OC(F)(F)F)cc2)N2Cc3ccc(C(F)(F)F)cc3C2=O)cc1` (centres unmarked) [EU1180-539, 2-(1-(4-isopropoxyphenyl)-2-(4-(trifluoromethoxy)phenoxy)ethyl)-6-(trifluoromethyl)isoindolin-1-one], 99%. As to `COc1ccc(OCC(c2c(F)cc(OC)cc2F)N2Cc3ccc(C(F)(F)F)cc3C2=O)cc1` (centres unmarked) [EU1180-546, 2-(1-(2,6-Difluoro-4-methoxyphenyl)-2-(4-methoxyphenoxy)ethyl)-6-(trifluoromethyl)isoindolin-1-one], the remaining activity at 30 µM is 96%.

`COc1ccc(OCC(c2ccc(OC)c(OC)c2)N2Cc3ccc(F)cc3C2=O)cc1` (centres unmarked) [EU1180-529, 2-(1-(3,4-Dimethoxyphenyl)-2-(4-methoxyphenoxy)ethyl)-6-fluoroisoindolin-1-one]: the remaining activity at 30 µM was 84%. Same read-out and setting: under `COc1ccc(OCC(c2ccc(OC(C)C)cc2)N2Cc3ccc(Cl)cc3C2=O)cc1` (centres unmarked) [EU1180-564, 6-chloro-2-(1-(4-isopropoxyphenyl)-2-(4-methoxyphenoxy)ethyl)isoindolin-1-one] stands 96%; under `CCOc1ccc(OCC(c2ccc(OC(C)C)cc2)N2Cc3ccc(Cl)cc3C2=O)cc1` (centres unmarked) [EU1180-588, 6-chloro-2-(2-(4-ethoxyphenoxy)-1-(4-isopropoxyphenyl)ethyl)isoindolin-1-one], 67%; under `COc1ccc(C(COc2cccc(C)n2)N2Cc3cc(F)ccc3C2=O)cc1` (centres unmarked) [EU1180-598, 5-Fluoro-2-(1-(4-methoxyphenyl)-2-((6-methylpyridin-2-yl)oxy)ethyl)isoindolin-1-one], 89%.

As to `COc1ccc(OCC(c2ccc(OC)c(OC)c2)N2Cc3cc(Br)ccc3C2=O)cc1` (centres unmarked) [EU1180-526, 5-Bromo-2-(1-(3,4-dimethoxyphenyl)-2-(4-methoxyphenoxy)ethyl)isoindolin-1-one], the remaining activity at 30 µM was 101%. Same read-out and setting: for `COc1ccc(OCC(c2ccc(OC)cc2F)N2Cc3cc(F)ccc3C2=O)cc1` (centres unmarked) [EU1180-536, 5-Fluoro-2-(1-(2-fluoro-4-methoxyphenyl)-2-(4-methoxyphenoxy)ethyl)isoindolin-1-one] the value was 80%; for `COc1ccc(C(COc2cccc(C)n2)N2Cc3ccc(Br)cc3C2=O)cc1` (centres unmarked) [EU1180-597, 6-Bromo-2-(1-(4-methoxyphenyl)-2-((6-methylpyridin-2-yl)oxy)ethyl)isoindolin-1-one], 69%; for `COc1ccc(OCC(c2ccc(OC)c(OC)c2)N2Cc3ccc(C(F)(F)F)cc3C2=O)cc1` (centres unmarked) [EU1180-523, 2-(1-(3,4-Dimethoxyphenyl)-2-(4-methoxyphenoxy)ethyl)-6-(trifluoromethyl)isoindolin-1-one], 104%.

For the compound `CC(C)Oc1ccc(C(COc2ccc(OC(F)(F)F)cc2)N2Cc3cc(F)ccc3C2=O)cc1` (centres unmarked) [EU1180-544, 5-fluoro-2-(1-(4-isopropoxyphenyl)-2-(4-(trifluoromethoxy)phenoxy)ethyl)isoindolin-1-one], the remaining activity at 30 µM came to 98%.

What is called IC50 is the concentration needed to halve the response being measured.
